Experimental data: patent publication US20240016795A1, “BROMODOMAIN INHIBITORS FOR ANDROGEN RECEPTOR-DRIVEN CANCERS” (FORMA Therapeutics, Inc., priority 2020, published 2024)
pIC50: −log10 of the molar value. Several values for one entry are separate records, joined by “and”; a condition that tells them apart may be missing. Identical values can stand only once. Like-named read-outs stand apart in the source and are kept apart here.

Legend:
[1] = system: XBP1; assay: Taqman gene expression in AR-positive breast cancer cells, XBP1; format: cell-based; conditions: 24 hours, read-out: IC50, XBP1 mRNA
Method: AR-positive breast cancer cells were exposed to increasing concentrations of compounds for 24 hours. RNA was extracted and gene expression measured using Taqman® assays for TMPRSS2 and XBP1.

[2] = system: TMPRSS2; assay: qPCR gene expression in AR-v7+ prostate cancer cells, TMPRSS2; format: cell-based; conditions: 24 h
Method: AR-v7+ prostate cancer cells were exposed to compounds 1, 2, 3, or 4 for 24 h. RNA was extracted and gene expression was measured by qPCR using Taqman® primer-probes. GAPDH was used as a housekeeping gene.

[3] = target: p300 bromodomain (Homo sapiens (Human), UniProt Q09472); assay: Time-resolved fluorescence biochemical assay, p300; format: binding; conditions: GST fusion of the p300 bromodomain
Description: Data is fitted using the Levenburg Marquardt algorithm. […] Data is fitted using the Levenburg Marquardt algorithm.

[4] = system: CAMA1; assay: 10-day CellTiter-Glo antiproliferative assay, CAMA1; format: cell-based; conditions: Homo sapiens, CAMA-1, 240 h, 10-day exposure, AR High, ER +, Her2 −
Method: (§1) Breast cell lines were cultured according to the distributor's recommendations. The following day, cells were exposed to compounds up to 10 days. Cell viability was assessed using a CellTiter-Glo® assay (Promega) at the end of the incubation period. The growth inhibitory effect was assessed by the concentration inhibiting growth by 50% using a nonlinear regression equation and a variable slope (Graphpad Prism). The mRNA expression levels for the androgen receptor (HUGO: AR) was determined from the DepMap Portal database (release 19Q2).

[5] = system: FKBP5; assay: qPCR gene expression in VCaP, FKBP5; format: cell-based; conditions: Homo sapiens, 24 h
Method: (§2) RNA was extracted using Qiacube RNAeasy Mini (Qiagen). For all genes tested, the qPCR reactions were carried out in triplicate with 250 ng RNA per reaction and Taqman® primer-probes. GAPDH was used as a housekeeping gene.

[6] = system: LNCaP; assay: 10-day prostate cancer cell proliferation assay, LNCaP; format: cell-based; conditions: Homo sapiens, LNCaP, 240 h; 10 days exposure; T878A/WT, androgen-dependent
Method: (§3) Prostate cell lines were obtained from ATCC or DSMZ and cultured according to the distributor's recommendations. Prostate cancer cells were plated and incubated overnight. […] Cell viability was assessed using a CellTiter-Glo® assay (Promega) after 10 days drug exposure. The growth inhibitory effect was assessed by the concentration inhibiting growth by 50% using a nonlinear regression equation and a variable slope (Graphpad Prism).

[7] = system: MDA-MB-231; assay: 10-day CellTiter-Glo antiproliferative assay, MDA-MB-231; format: cell-based; conditions: Homo sapiens, MDA-MB-231, 240 h, 10-day exposure, AR Low, ER −, Her2 −
Method: as §1

[8] = system: MDA-MB-453; assay: 10-day CellTiter-Glo antiproliferative assay, MDA-MB-453; format: cell-based; conditions: Homo sapiens, MDA-MB-453, 240 h; 10-day exposure, CellTiter-Glo; AR High, ER −, Her2 +/−; read-out: IC50 (μM), MDA-MB-453
Method: as §1

[9] = system: CAL148; assay: 10-day CellTiter-Glo antiproliferative assay, CAL148; format: cell-based; conditions: Homo sapiens, CAL-148, 240 h, 10-day exposure, AR Low, ER −, Her2 −
Method: as §1

[10] = system: patient-derived xenograft (PDX) model of AR+ prostate cancer sensitive to enzalutamide; assay: Patient-derived xenograft of prostate cancer sensitive to enzalutamide; format: in vivo, NOG mice; conditions: Compound 1 40 mg/kg/day, enzalutamide 20 mg/kg/day
Method: The antitumor activity was determined based by tumor volume during the course of the study.
Male NOG mice (6-8 weeks of age) were implanted with tumor fragments. When tumors reached an average tumor volume of 150-200 mm^3 animals were randomized into different cohort groups and dosing initiated on the same day (Day 0). Animals were weighed twice weekly.
[…] 11.

[11] = system: HCC1500; assay: 10-day CellTiter-Glo antiproliferative assay, HCC1500; format: cell-based; conditions: HCC1500, 240 h, 10-day exposure, AR High, ER +, Her2 −
Method: as §1

[12] = system: PC-3; assay: 10-day prostate cancer cell proliferation assay, PC-3; format: cell-based; conditions: Homo sapiens, PC-3, 240 h; 10 days exposure; AR negative
Method: as §3

[13] = system: SORD; assay: qPCR gene expression in VCaP, SORD; format: cell-based; conditions: Homo sapiens, 24 h
Method: as §2

[14] = system: SORD; assay: qPCR gene expression in 22Rv1, SORD; format: cell-based; conditions: Homo sapiens, 22Rv1, 24 h
Method: as §2

[15] = system: human kinases and disease-relevant mutant variants; assay: KINOMEscan screen; format: binding
[16] = system: FKBP5; assay: qPCR gene expression in 22Rv1, FKBP5; format: cell-based; conditions: Homo sapiens, 22Rv1, 24 h
Method: as §2

[17] = system: AR+ prostate cancer cell lines (LnCaP, VCaP, 22Rv1); assay: 10-day proliferation assay, all AR+ prostate cancer cell lines; format: cell-based; conditions: 240 h; 10-day assay; read-out: growth inhibitory effect (IC50), all AR+ cell lines
Method: Two AR-negative prostate cancer cell lines DU145 and PC-3 were also evaluated.
as §3

[18] = system: DU 145; assay: 10-day prostate cancer cell proliferation assay, DU 145; format: cell-based; conditions: Homo sapiens, DU-145, 240 h; 10 days exposure; AR negative
Method: as §3

[19] = system: H3K27Ac; assay: H3K27Ac western blot in MDA-MB-453 cells; format: cell-based; conditions: MDA-MB-453, 24 hrs, western blot
Method: H3K27Ac is a specific mark of CBP/p300 activity and thus offers a means to directly assess the impact of CBP/p300 inhibition in cells.
MDA-MB-453 cells were plated overnight and exposed to the compounds for 24 hours. Lysates were prepared from the cells in E-PAGE loading buffer (Invitrogen) and analyzed by western blot with antibodies diluted 1:1000 for anti-H3K27Ac, 1:2000 for anti-total H3 and 1:10,000 for anti-β actin. The blots were scanned and analyzed on a LI-COR Odyssey image analyzer. H3K27Ac levels were normalized to β-Actin.
Finally, a washout experiments was carried out with compound 4 to assess the recovery of the biomarker after removal of the compound. […] Lysates were prepared and analyzed by western blot, as described above.

[20] = system: KLK3 (PSA); assay: qPCR gene expression in VCaP, KLK3 (PSA); format: cell-based; conditions: Homo sapiens, 24 h
Method: as §2

[21] = system: AR; assay: AR protein level by western blot in prostate cancer cells; format: cell-based
[22] = system: AR target genes; assay: Reduction of AR target genes in 22Rv1 cells; format: cell-based; conditions: Homo sapiens, 24 hr exposure
Method: as §2

[23] = system: 22Rv1; assay: 10-day prostate cancer cell proliferation assay, 22Rv1; format: cell-based; conditions: Homo sapiens, 22Rv1, 240 h
Method: as §3

Sequence of p300 bromodomain (Q09472 1049-1156): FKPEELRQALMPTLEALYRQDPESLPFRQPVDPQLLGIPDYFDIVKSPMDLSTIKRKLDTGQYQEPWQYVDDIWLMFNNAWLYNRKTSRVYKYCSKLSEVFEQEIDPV

With `COC(=O)N1c2ccc3c(nc([C@H](O)c4cc(F)ccc4OC)n3[C@@H]3CCC[C@@H](C(=O)O)C3)c2CC[C@@H]1C` [Compound 1, (1R,3R)-3-[(7S)-2-[(R)-(5-fluoro-2-methoxyphenyl)(hydroxy)methyl]-6-(methoxycarbonyl)-7-methyl-3H,6H,7H,8H,9H-imidazo[4,5-f]quinolin-3-yl]cyclohexane-1-carboxylic acid] the pIC50 [1] was > 7.00, the pIC50 [2] was > 8.00 and the pIC50 [3] was > 8.70 and ~9.00. The IC50 [4] was < 0.2 µM, the IC50 [5] was > 0.1 µM and the pIC50 [6] was < 6.00. For the same compound, the IC50 [7] was > 1 µM, the IC50 [8] was < 0.2 µM and the IC50 [9] was > 1 µM. For the same compound, the “AR target gene SPDEF expression in tumor” value ([10]; four days) was “reduced”, the H3K27Ac in tumor ([10]; four days) was “reduction of H3K27Ac” and the “TGI at the end of study” value ([10]; start of dosing to day 59) was “comparable”. The IC50 [11] was 0.5 to 1 µM, the pIC50 [12] was < 6.00 and the IC50 [13] was > 0.1 µM. The IC50 [14] was > 0.1 µM, the “binding affinity for kinases” value [15] was “no to low binding affinity” and the IC50 [16] was > 0.1 µM. The pIC50 [17] was 5.82 to 6.30, the pIC50 [18] was < 6.00 and the H3K27Ac level [19] was “concentration dependent reduction”. The IC50 [20] was 0.01 to 0.05 µM, the “return of AR to baseline level following removal of compound” value ([21]; 22Rv1, after a 24 hr exposure) was ≤ 24 h and the AR protein level ([21]; androgen-independent and androgen-dependent prostate cancer cell lines, western blot) was “dose dependent reduction”. For the same compound, the pIC50 [22] was > 6.30, the pIC50 ([23]; 10-day assay, read-out: anti-proliferative effect (IC50), 22Rv1) was 6.00 to 6.30 and the pIC50 ([23]; 10 days exposure, H857Y/H857Y, AR v7+, androgen-independent, read-out: IC50, 22Rv1) was 6.00 to 6.30.
